Reference: patent US10323027B2, “2,3-dihydro-4H-1,3-benzoxazin-4-one derivatives as modulators of cholinergic muscarinic M1 receptor” (Takeda Pharmaceutical Company Limited, priority 2015, dated 2019)
Counter-ions that a name gives are not always drawn.

Assays:
[1] = biological target: T1, human M1 receptor (hCHRM1) (Homo sapiens, UniProt P11229); assay: Measurement of M1 receptor positive allosteric modulator (M1PAM) activity, Ca2+ fluorescence by FLIPRtetra (Experimental Example 1); type: cell-based; conditions: for activity (%) at 10 μM: 10 μM test compound, 100% = acetylcholine 1 μM, 0% = DMSO; for EC50: inflection point of concentration-dependent curve, in presence of acetylcholine at EC20 (0.8-1.0 nM), CHO-K1 cells expressing hCHRM1, read-out: IP value
T1 construct: expressed in transfected cells
T1 sequence (P11229 1-460): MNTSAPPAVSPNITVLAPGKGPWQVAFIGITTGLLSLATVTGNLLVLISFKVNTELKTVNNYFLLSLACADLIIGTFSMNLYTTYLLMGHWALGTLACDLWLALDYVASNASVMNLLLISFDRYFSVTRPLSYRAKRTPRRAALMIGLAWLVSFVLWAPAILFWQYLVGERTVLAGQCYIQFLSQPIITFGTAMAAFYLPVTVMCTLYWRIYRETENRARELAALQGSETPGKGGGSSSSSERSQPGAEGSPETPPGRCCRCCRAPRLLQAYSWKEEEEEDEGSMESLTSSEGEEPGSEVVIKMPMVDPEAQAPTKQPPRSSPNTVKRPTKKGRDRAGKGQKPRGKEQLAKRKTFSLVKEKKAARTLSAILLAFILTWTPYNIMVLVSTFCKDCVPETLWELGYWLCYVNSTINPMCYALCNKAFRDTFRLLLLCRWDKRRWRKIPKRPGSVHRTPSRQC
Procedure, shortened: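 CHO-K1 cells stably expressing hCHRM1, loaded with Fluo-4 AM (probenecid), received compound with acetylcholine at EC20 (final 0.8-1.0 nM); Ca2+ fluorescence read 1 min by FLIPRtetra. Activity scaled 0% (DMSO) to 100% (1 μM acetylcholine); IP from inflection point of concentration curve.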

[2] = test system: Myo-Inositol 1 Phosphate (IP1); assay: Measurement of myo-inositol 1 phosphate (IP1) in rat hippocampi after oral administration (Experimental Example 3); type: in vivo, male Long-Evans rats; conditions: IP1 production (IP1/protein) in rat hippocampi; 10 mg/kg oral; relative to Vehicle administration group as 100%
Protocol: Measurement of Myo-Inositol 1 Phosphate (IP1)
Animals used were male Long-Evans rats. They were used after acclimation for at least 1 week. Test compounds were suspended in 0.5% (w/v) aqueous methylcellulose solution, and the suspension was orally administered to the rats. After a given time, lithium chloride dissolved in saline was subcutaneously administered into the rats. After a given time, their bilateral hippocampi were isolated from the rats, and the wet weight thereof was measured. The isolated hippocampi were homogenized with HEPES (registered trademark) buffer, followed by centrifugation. The IP1 and protein concentrations in the supernatant were measured by IP-One HTRF assay kit (Cisbio Bioassays) and BCA protein assay kit (Thermo Scientific), respectively. The level of the IP1 production was expressed as the ratio of the concentration of IP1 to that of protein. The increase rate of the IP1 production was shown as a relative value when Vehicle administration group as 100%.

[3] = test system: Scopolamine-induced memory deficits models; assay: Novel object recognition test (Experimental Example 4); type: in vivo, male Long-Evans rats; conditions: scopolamine 0.1 mg/kg s.c., retention trial 4 hr after acquisition, mean±standard error
Protocol: Novel Object Recognition Test Novel object recognition test is comprised of two trials called the acquisition and the retention trials. Scopolamine-induced memory deficits models were used for the test, and animals used were male Long-Evans rats. On the day before the test, for acclimation, the rats were allowed to freely move about the test box (40×40×50 cm) for 10 minutes. On the test day, the rats were acclimated to the test room for about 1 hr prior to the test. The test compounds were orally administered to the rats in a single dose a given time before the acquisition trial. For induction of learning and memory deficits, scopolamine (0.1 mg/kg) was subcutaneously administered into the rats 30 min before the acquisition trial. For the acquisition trial, two identical objects (A1, A2) were placed in the test box. The rats were put in the test box for 3 min, and the duration exploring each object was measured. The retention trial was performed 4 hr after the acquisition trial. For the retention trial, one familiar object (A3) used for the acquisition trial and one novel object (B) having a different shape from A3 were placed in the test box. After setting the objects, the rats were introduced into the test box and retention trial was performed for 3 min. The duration for exploring each object in the acquisition trial and the retention trial was measured, and the exploration rate of novel object was calculated. The exploration rate of novel object was expressed as (the duration exploring the novel object)/[(the duration exploring the novel object)+(the duration exploring the familiar object)]×100(%) at mean±standard error.

[4] = biological target: T1, human M1 receptor (hCHRM1); assay: Measurement of M1 receptor positive allosteric modulator (M1PAM) activity, Ca2+ fluorescence by FDSS/μ cell (Experimental Example 2); type: cell-based
Protocol: Measurement of M1 Receptor Positive Allosteric Modulator (M1PAM) Activity
The activity of a test compound in the presence of acetylcholine at EC20 concentration (final concentration 0.8-1.0 nM), which affords an action corresponding to about 20% of the maximum activity, was measured as PAM activity. The method is as follows. CHO-K1 cells stably expressing a human M1 receptor (hCHRM1) were plated on a 384-well black clear bottom plate (BD Falcon) at 5,000 cells/well, and cultured in an incubator at 37° C., 5% CO2 for 1 day. The medium in the cell plate was removed, and a dye solution (prepared by adding Recording medium (DOJINDO LABORATORIES) to a final concentration of 1×concentration, Fluo-4 AM (DOJINDO LABORATORIES) to a final concentration of 2.5 μg/mL, Pluronic F127 (DOJINDO LABORATORIES) to a final concentration of 0.08%, and probenecid (DOJINDO LABORATORIES) to a final concentration of 1.25 mM to assay buffer (HBSS (Invitrogen), 20 mM HEPES (Invitrogen), 0.1% BSA (Wako Pure Chemical Industries, Ltd.))) was added at 30 μL/well. The cells were left standing in the incubator at 37° C., 5% CO2 for 30 min, and further left standing at room temperature for 30 min. A test compound prepared by diluting with assay buffer containing 3.2-4.0 nM acetylcholine was added at 10 μL/well, and the fluorescence was measured by FDSS/μ cell (Hamamatsu Photonics K.K.) for 1 min every 1 second. With the definition that the amount of change in the fluorescence on addition of acetylcholine (final concentration 1 μM) is 100% and that on addition of DMSO instead of a test compound is 0%, the activity (%) of the test compound was calculated, and the inflection point in the concentration-dependent curve of the test compound was calculated as IP values.

Row | SMILES | activity (%) at 10 μM [1] | EC50 [1] | increase rate (%) at 10 mg/kg [2] | exploration rate of novel object (%) ([3]; 3 mg/kg oral) | activity (%) at 10 μM ([4]; 10 μM test compound, 100% = acetylcholine 1 μM, 0% = DMSO) | EC50 ([4]; inflection point of concentration-dependent curve, in presence of acetylcholine at EC20 (0.8-1.0 nM), CHO-K1 cells expressing hCHRM1, read-out: IP value) | exploration rate of novel object (%) ([3]; 1 mg/kg oral)
1 | Cc1ccc(Cc2cc3c(cc2C)OCN([C@H]2CCCC[C@@H]2O)C3=O)cn1 (single isomer, unassigned) [Example 28, 3-(trans-2-hydroxycyclohexyl)-7-methyl-6-((6-methylpyridin-3-yl)methyl)-2,3-dihydro-4H-1,3-benzoxazin-4-one monohydrochloride (optical isomer)] | 108% | 20 nM | 36% | – | – | – | –
2 | Cc1c(Cc2ccc(Cl)nc2)cc2c(c1Cl)OCN([C@H]1CCC[C@@H]1O)C2=O [Example 24, 8-chloro-6-((6-chloropyridin-3-yl)methyl)-3-((1S,2S)-2-hydroxycyclopentyl)-7-methyl-2,3-dihydro-4H-1,3-benzoxazin-4-one] | 94% | 3.1 nM | 26% | 63.5±2.4% | – | – | –
3 | Cc1cc2c(cc1Cc1ccc(-c3ccn(C)n3)cc1)C(=O)N([C@H]1COCC[C@@H]1O)CO2 [Example 104, 3-((3S,4S)-4-hydroxytetrahydro-2H-pyran-3-yl)-7-methyl-6-(4-(1-methyl-1H-pyrazol-3-yl)benzyl)-2,3-dihydro-4H-1,3-benzoxazin-4-one] | – | – | 86% | 61.6±2.2% | 99% | 4.5 nM | –
4 | Cc1c(Cc2ccc(-n3cccn3)nc2)cc2c(c1F)OCN([C@H]1CCC[C@@H]1O)C2=O [Example 13, 8-fluoro-3-((1S,2S)-2-hydroxycyclopentyl)-7-methyl-6-((6-(1H-pyrazol-1-yl)pyridin-3-yl)methyl)-2,3-dihydro-4H-1,3-benzoxazin-4-one] | 88% | 6 nM | 102% | – | – | – | 60.2±3.0%
